Measured values taken from publication PMC5884060 (Biochemistry, 2018).
pEC50: −log10 of the molar value. Blank lines part the entries; values can stand above or below the molecule they belong to.

What was measured:
[1] = molecular target: T1, PDIA1 (Homo sapiens, UniProt P07237); assay: Insulin turbidity assay; conditions: for kinact/KI: 0.5 μM PDIA1, 0.16 mM insulin, 1 mM DTT, varying concentrations and pre-incubation times
[2] = tested on: PDIA1 C53A and C397A; format: binding; conditions: from IC50 values; PDIA1 C53A and C397A 50 μg/mL in MCF-7 lysates 1 mg/mL, CA-Rh 8 μM
[3] = tested on: MCF-7 cells; conditions: read-out: EC50 MTT cell viability
[4] = molecular target: prostaglandin E synthase 2 (PTGES2) (Homo sapiens, UniProt Q9H7Z7); assay: Proteome-wide target enrichment, LC/LC-MS/MS spectral counts; conditions: MCF-7 cells, KSC-34 5 μM
Chain of prostaglandin E synthase 2 (PTGES2) (Q9H7Z7 whole entry): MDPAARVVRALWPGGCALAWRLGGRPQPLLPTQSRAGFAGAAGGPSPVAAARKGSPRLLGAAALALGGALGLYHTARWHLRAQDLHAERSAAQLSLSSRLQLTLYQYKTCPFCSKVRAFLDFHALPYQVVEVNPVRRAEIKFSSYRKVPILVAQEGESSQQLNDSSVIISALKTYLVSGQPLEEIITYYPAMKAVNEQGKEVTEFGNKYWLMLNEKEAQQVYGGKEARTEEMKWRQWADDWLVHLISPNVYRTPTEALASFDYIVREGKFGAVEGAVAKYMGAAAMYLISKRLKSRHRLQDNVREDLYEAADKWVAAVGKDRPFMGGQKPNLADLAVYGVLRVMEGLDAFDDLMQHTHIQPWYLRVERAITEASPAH

[5] = molecular target: T1, PDIA1; conditions: HEK293^DAX cells, KSC-34 40 μM, 1 h pre-treatment
[6] = tested on: HEK293^DAX cells stably expressing PDIA1 shRNA; conditions: KSC-34 40 μM, ELISA and [35S] metabolic labeling
[7] = tested on: A549 cells
[8] = molecular target: T2, PDIA4 (Homo sapiens, UniProt P13667); conditions: HEK293^DAX cells, KSC-34 40 μM, 1 h pre-treatment
T2 sequence (P13667 21-645, species assumed): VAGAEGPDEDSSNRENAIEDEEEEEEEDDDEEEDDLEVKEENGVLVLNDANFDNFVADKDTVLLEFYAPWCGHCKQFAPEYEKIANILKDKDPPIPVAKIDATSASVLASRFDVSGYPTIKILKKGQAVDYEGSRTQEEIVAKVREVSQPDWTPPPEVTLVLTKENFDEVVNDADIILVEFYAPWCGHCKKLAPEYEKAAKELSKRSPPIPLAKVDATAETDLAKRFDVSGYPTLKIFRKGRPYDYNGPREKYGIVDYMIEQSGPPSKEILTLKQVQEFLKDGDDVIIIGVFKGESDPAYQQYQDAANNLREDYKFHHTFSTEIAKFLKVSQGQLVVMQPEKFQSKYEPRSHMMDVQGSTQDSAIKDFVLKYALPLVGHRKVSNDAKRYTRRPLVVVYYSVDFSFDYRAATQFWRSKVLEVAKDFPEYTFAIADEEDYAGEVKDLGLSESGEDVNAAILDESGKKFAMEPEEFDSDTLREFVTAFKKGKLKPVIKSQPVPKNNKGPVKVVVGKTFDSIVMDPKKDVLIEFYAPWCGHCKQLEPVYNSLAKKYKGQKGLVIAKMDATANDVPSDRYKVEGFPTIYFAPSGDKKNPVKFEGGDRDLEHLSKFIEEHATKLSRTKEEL

[9] = molecular target: endogenous PDIA1 (Homo sapiens, UniProt P07237); assay: In-gel fluorescence: endogenous PDIA1 in MCF-7 lysates; format: binding; conditions: compound 5 μM, MCF-7 lysates 2 mg/mL
Chain of endogenous PDIA1 (P07237 18-508): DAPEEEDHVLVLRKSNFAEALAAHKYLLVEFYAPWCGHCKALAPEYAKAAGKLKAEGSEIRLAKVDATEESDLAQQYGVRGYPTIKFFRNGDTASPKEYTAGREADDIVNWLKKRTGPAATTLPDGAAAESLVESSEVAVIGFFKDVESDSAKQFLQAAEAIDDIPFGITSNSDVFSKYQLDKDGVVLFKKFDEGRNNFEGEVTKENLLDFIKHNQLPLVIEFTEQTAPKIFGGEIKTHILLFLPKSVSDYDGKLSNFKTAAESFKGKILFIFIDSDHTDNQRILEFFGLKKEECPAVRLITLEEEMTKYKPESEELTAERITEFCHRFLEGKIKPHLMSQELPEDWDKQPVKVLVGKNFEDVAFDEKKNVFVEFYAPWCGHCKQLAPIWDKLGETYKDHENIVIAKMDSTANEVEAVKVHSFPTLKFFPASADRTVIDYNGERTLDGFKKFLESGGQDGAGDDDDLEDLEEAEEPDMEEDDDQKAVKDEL

[10] = molecular target: T1, PDIA1; conditions: 5 μM, MCF-7 cells, 3 hours at 37 °C
[11] = molecular target: T3, purified, recombinant PDIA1 (Homo sapiens, UniProt P07237); assay: In-gel fluorescence screen: covalent modification of purified recombinant PDIA1; format: binding; conditions: compound 5 μM, PDIA1 50 μg/mL, 1 hour, TAMRA in-gel fluorescence
T3 sequence (P07237 18-508): as above

[12] = tested on: MCF-7 cells
[13] = molecular target: T3, purified, recombinant PDIA1; assay: In-gel fluorescence: recombinant PDIA1 in the background of MCF-7 cell lysates; format: binding; conditions: PDIA1 50 μg/mL in MCF-7 cell lysates 1 mg/mL
[14] = tested on: HEK293^Trex cells stably expressing ^FTALLC; assay: Viability by Cell Titre Glo; format: cell-based; conditions: KSC-34 40 μM, Cell Titre Glo after media conditioning
[15] = molecular target: PDIA1 C53A (Homo sapiens, UniProt P07237, C53A); conditions: KSC-34 5 μM, protein 50 μg/mL, 1 hour
Chain of PDIA1 C53A (P07237 18-508 C53A): as the sequence (P07237 18-508) above, with C36A counted along it

[16] = tested on: HEK293^DAX cells; assay: [35S] metabolic labeling, fraction FTALLC secreted; format: cell-based; conditions: KSC-34 40 μM added 1 h prior to labeling and throughout
[17] = molecular target: PDIA3 (Homo sapiens, UniProt P30101); conditions: PDIA3 50 μg/mL, with or without MCF-7 lysates 1 mg/mL
Chain of PDIA3 (P30101 25-505, species assumed): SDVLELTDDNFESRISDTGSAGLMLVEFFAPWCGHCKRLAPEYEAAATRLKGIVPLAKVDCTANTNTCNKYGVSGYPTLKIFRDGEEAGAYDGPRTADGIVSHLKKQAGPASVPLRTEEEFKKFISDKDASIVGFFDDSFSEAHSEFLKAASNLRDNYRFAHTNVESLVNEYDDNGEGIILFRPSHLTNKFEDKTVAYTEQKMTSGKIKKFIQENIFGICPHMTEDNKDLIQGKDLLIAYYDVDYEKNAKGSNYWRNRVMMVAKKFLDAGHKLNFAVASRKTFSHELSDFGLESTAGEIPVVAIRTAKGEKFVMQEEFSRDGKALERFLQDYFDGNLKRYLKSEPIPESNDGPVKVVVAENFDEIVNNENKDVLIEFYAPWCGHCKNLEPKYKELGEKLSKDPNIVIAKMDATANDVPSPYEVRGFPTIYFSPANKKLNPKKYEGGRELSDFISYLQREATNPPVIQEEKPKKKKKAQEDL

[18] = molecular target: T2, PDIA4; conditions: PDIA4 50 μg/mL, with or without MCF-7 lysates 1 mg/mL
[19] = molecular target: T1, PDIA1; conditions: MCF-7 cells, KSC-34 5 μM; ~5 in the DMSO control
[20] = tested on: SKOV-3; assay: qPCR analysis of UPR target genes; format: cell-based; conditions: SKOV-3 cells
[21] = molecular target: PDIA6 (Homo sapiens, UniProt Q15084); conditions: MCF-7 cells, KSC-34 5 μM
Chain of PDIA6 (Q15084 20-440): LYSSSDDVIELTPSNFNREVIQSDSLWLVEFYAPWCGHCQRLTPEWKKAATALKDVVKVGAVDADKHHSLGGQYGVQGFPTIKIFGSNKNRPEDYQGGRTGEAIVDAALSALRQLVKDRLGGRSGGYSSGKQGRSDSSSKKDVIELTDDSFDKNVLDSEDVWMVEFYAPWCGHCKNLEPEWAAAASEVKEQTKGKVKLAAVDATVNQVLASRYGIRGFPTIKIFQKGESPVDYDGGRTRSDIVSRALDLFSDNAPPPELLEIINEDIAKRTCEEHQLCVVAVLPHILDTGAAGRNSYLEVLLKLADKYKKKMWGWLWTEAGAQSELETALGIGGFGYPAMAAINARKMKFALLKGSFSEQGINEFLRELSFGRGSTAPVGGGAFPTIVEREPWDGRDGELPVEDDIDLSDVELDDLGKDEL

[22] = tested on: HEK293^Trex cells stably expressing ^FTALLC; assay: FTALLC secretion by ELISA; format: cell-based; conditions: KSC-34 40 μM, 4 h pretreatment, 2 h conditioning, compared to vehicle

T1 sequence (P07237 18-508): as the sequence (P07237 18-508) above

- kinact/KI [1]: 252 M⁻¹ s⁻¹
Molecule: 16F16 [reference compound]
- selectivity for the a domain over the a′ domain [2]: 2 fold

- pEC50 [3]: 4.09
- average spectral counts PTGES2 [4]: ~ 120 spectral counts
- interaction of PDIA1 with FTALLC (co-IP) [5]: disrupted this interaction
- kinact/KI [1]: 9660 M⁻¹ s⁻¹
- potency (kinact/KI) relative to RB-11-ca ([1]; insulin turbidity assay): ~ 3 fold
- potency of PDIA1 modification in living cells compared to RB-11-ca [10]: ~ 8 fold
- covalent modification of PDIA1 relative to RB-11-ca [13]: equal or greater potency to RB-11-ca
- labeling of PDIA1 C53A [15]: absence of fluorescence
- labeling of PDIA3 [17]: absence of fluorescence
- labeling of PDIA4 [18]: absence of fluorescence
- average spectral counts matched to PDIA1 [19]: ~ 2000 spectral counts
- spectral counts PDIA6 [21]: ~ 20 spectral counts
Molecule: C#CCNc1nc(NCCNC(=O)CCl)nc(N(C)CCCCc2ccccc2)n1 [KSC-34]
- KSC-34-dependent reduction in FTALLC secretion upon depletion of PDIA1 [6]: attenuated
- effect on IRE1α-dependent UPR transcripts [7]: no significant effects
- interaction of PDIA4 with FTALLC (co-IP) [8]: does not influence the interaction between these proteins
- covalent modification of endogenous PDIA1 relative to RB-11-ca [9]: equal or greater potency toward PDIA1 compared to RB-11-ca
- covalent modification of PDIA1 relative to RB-11-ca [11]: equal or greater potency compared to RB-11-ca
- timeframe of IRE1α activation [12]: < 6 h
- activation of the PERK and ATF6 arms of the UPR ([12]; 4–40 μM, 3 hours at 37 °C): no significant activation
- increase in SEC24D and ERDJ4 mRNA levels ([12]; >20 μM KSC-34, 3 hours, relative to DMSO): ~ 2 fold
- reduction in cellular viability [14]: 20%
- reduction of fraction of [35S]-labeled FTALLC secreted [16]: 30%
- effect on IRE1α-dependent UPR transcripts [20]: no significant effects
- reduction of FTALLC levels in conditioned media [22]: 40%
- selectivity for the a domain over the a′ domain [2]: 30 fold
